Source: PMC11285368, “Chasing Red Herrings: Palladium Metal Salt Impurities Feigning KRAS Activity in Biochemical Assays” (Journal of Medicinal Chemistry, 2024)

How the values were obtained:
Assay type in all cases: biochemical
WRN (int.) = WRN (int.) (Homo sapiens, UniProt Q14191); test: WRN ADP-Glo, Target #1
Procedure: (§1) Metal salt solutions for the metal ion interference set (MIIS) were prepared as 10 mM stock solutions in DMSO (see Table 3). All metal salts used have been purchased at highest industrial grade.

off target [1] = test: FKBP51 AlphaScreen, Target #3
Procedure: as §1

KRAS GDP = test: KRAS AlphaScreen, Target #1
Procedure: as §1

FKBP51 = biological target: T1, FKBP51 (Homo sapiens, UniProt Q13451); test: FKBP51 AlphaScreen, Target #1
T1 sequence (Q13451 1-457): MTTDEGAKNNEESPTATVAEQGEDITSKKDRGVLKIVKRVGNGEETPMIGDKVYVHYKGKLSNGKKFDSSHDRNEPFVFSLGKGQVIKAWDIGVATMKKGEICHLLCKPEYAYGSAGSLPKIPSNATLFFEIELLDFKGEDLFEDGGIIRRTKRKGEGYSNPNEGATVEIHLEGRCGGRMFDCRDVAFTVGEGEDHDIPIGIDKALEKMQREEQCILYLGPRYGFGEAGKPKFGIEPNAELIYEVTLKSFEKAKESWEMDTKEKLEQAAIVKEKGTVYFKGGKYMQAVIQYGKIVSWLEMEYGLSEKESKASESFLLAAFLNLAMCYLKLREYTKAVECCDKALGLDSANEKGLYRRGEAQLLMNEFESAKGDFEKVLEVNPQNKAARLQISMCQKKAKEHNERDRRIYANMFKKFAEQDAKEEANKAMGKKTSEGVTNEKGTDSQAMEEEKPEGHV
Procedure: as §1

KRAS GTP = KRAS GTP (Homo sapiens, UniProt P01116, G12D); test: KRAS AlphaScreen, Target #2
Procedure: as §1

off target [2] = test: KRAS AlphaScreen, Target #3
Procedure: as §1

off-target (int.) = test: WRN ADP-Glo, Target #3
Procedure: as §1

off-target = test: MDM2 AlphaScreen, Target #2
Procedure: as §1

WRN (ext.) = WRN (ext.) (Homo sapiens, UniProt Q14191); test: WRN ADP-Glo, Target #2
Procedure: as §1

MDM2 = MDM2 (Homo sapiens, UniProt Q00987); test: MDM2 AlphaScreen, Target #1
Procedure: as §1

EGFR = EGFR (Homo sapiens, UniProt P00533); test: EGFR MALDI; conditions: read-out: Target #1 IC50
Procedure: as §1

LSD1 = LSD1 (Homo sapiens, UniProt O60341); test: LSD1 DELFIA; conditions: read-out: Target #1 IC50
Procedure: as §1

beta-Catenin = biological target: T2, beta-Catenin (Homo sapiens, UniProt P35222); test: beta-Catenin TR-FRET; conditions: read-out: Target #1 IC50
T2 sequence (P35222 1-781): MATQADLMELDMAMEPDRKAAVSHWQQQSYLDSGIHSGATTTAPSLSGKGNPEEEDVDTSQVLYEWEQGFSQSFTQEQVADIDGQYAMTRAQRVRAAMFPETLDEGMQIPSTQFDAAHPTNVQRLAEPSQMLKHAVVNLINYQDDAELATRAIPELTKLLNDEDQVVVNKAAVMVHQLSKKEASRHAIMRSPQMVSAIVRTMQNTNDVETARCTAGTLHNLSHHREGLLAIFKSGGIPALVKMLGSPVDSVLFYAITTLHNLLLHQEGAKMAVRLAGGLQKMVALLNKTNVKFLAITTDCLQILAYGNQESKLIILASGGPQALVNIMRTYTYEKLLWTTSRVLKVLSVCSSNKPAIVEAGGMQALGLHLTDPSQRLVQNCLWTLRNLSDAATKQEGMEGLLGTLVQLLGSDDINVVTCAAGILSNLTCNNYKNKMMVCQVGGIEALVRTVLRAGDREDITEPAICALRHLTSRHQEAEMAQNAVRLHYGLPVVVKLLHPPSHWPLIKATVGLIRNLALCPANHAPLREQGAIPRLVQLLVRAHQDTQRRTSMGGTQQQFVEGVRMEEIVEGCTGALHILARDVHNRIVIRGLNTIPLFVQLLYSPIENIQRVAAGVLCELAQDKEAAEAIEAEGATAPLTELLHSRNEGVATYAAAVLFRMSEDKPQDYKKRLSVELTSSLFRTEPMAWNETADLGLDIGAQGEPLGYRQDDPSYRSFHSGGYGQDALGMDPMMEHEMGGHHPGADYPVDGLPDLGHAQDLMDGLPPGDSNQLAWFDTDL
Procedure: as §1

UPAR = UPAR (Homo sapiens, UniProt Q03405); test: UPA-UPAR AlphaScreen, Target #1
Procedure: as §1

Chain of EGFR (P00533 25-1210, species assumed): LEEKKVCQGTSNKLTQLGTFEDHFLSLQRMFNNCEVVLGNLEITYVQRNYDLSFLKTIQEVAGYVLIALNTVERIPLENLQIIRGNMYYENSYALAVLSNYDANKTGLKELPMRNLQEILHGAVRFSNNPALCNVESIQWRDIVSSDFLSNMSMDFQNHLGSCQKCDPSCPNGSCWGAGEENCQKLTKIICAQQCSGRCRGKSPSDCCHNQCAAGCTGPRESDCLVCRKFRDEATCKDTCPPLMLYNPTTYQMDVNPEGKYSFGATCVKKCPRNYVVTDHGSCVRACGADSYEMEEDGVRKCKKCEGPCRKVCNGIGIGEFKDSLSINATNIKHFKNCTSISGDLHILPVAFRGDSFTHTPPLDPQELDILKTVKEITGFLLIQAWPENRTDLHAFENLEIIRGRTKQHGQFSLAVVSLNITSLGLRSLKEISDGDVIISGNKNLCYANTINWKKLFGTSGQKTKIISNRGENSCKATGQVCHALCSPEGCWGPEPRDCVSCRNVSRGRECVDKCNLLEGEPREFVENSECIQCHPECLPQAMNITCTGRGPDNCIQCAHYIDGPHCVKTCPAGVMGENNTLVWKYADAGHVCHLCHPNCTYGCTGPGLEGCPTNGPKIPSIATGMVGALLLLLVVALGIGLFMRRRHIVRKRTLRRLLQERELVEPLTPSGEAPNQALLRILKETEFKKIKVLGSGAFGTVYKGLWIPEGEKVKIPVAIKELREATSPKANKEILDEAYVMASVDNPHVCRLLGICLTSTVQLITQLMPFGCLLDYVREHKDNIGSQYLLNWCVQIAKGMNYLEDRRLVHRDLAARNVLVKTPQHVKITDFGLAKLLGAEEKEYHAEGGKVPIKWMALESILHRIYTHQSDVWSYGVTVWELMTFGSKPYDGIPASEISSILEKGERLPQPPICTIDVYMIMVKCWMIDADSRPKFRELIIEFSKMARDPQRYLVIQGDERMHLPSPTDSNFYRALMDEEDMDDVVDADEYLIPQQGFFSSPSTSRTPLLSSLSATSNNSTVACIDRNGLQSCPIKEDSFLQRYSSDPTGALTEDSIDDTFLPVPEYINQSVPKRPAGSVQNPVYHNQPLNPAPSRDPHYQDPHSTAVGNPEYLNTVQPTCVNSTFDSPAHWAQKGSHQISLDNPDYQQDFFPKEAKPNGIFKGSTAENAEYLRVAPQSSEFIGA
Chain of MDM2 (Q00987 whole entry, species assumed): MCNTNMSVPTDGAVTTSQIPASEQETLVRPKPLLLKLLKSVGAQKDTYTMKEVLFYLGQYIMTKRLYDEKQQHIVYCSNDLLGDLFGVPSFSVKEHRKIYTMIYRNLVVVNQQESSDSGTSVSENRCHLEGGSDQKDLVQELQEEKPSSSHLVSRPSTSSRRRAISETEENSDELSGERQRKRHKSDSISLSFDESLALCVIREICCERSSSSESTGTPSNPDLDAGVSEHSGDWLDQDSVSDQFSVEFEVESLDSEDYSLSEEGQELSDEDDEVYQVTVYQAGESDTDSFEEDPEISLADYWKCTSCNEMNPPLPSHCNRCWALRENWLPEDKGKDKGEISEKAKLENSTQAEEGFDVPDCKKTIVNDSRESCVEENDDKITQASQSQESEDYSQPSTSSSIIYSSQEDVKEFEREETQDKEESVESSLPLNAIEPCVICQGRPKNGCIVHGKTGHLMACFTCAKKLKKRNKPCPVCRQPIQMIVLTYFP
Chain of UPAR (Q03405 23-305 limits assumed, species assumed): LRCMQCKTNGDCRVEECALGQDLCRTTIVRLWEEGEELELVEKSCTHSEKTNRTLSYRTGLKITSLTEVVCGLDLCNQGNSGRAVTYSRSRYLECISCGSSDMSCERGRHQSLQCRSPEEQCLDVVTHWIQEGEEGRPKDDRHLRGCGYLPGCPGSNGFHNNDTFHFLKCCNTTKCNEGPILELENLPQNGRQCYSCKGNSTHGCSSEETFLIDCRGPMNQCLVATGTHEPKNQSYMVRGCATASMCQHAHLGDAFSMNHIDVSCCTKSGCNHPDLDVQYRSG
Chain of KRAS GTP (P01116 1-169 isoform P01116-2 G12D): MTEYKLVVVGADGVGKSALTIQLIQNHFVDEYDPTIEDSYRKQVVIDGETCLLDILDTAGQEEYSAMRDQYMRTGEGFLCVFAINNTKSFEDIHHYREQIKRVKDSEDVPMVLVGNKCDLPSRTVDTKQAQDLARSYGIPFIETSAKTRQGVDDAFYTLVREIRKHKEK
Chain of WRN (ext.) (Q14191 whole entry, species assumed): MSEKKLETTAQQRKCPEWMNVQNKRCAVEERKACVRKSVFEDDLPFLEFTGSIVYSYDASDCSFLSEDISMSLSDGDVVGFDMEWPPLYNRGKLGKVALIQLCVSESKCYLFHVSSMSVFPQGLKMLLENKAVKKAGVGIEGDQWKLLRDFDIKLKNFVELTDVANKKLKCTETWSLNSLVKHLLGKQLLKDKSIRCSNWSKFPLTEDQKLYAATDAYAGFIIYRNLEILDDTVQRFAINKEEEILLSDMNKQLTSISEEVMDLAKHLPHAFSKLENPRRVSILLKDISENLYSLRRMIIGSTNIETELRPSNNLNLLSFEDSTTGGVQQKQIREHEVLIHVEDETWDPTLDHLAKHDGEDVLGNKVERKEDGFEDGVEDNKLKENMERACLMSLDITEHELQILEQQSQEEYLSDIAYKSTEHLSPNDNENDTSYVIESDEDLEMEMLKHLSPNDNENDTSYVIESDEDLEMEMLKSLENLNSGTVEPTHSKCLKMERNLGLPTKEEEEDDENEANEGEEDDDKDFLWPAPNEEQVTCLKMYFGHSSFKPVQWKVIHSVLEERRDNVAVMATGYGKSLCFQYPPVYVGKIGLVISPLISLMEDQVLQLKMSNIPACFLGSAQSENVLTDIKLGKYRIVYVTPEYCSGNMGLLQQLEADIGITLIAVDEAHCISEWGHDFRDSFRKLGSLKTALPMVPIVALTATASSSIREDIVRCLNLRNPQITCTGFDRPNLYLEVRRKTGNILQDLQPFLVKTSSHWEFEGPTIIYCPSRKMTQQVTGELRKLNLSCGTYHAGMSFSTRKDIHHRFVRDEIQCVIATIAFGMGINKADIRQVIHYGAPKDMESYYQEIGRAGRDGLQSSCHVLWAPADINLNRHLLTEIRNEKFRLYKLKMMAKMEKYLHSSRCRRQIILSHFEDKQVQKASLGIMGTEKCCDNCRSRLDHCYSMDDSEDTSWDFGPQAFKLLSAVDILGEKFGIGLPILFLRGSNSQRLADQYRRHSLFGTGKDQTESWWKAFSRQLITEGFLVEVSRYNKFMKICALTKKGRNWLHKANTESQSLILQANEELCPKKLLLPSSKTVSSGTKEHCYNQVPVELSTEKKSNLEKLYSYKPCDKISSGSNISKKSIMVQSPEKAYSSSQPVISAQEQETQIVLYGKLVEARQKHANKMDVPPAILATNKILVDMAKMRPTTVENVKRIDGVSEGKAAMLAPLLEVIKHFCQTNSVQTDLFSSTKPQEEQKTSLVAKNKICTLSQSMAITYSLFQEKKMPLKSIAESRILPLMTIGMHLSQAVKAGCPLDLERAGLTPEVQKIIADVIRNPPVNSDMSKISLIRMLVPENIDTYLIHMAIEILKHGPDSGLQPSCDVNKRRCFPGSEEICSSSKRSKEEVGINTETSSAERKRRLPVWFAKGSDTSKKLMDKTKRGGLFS
Chain of WRN (int.) (Q14191 whole entry, species assumed): as above

| SMILES | IC50 (WRN (int.)) [µM] | IC50 (off target [1]) [µM] | IC50 (KRAS GDP) [µM] | IC50 (FKBP51) [µM] | IC50 (KRAS GTP) [µM] | IC50 (off target [2]) [µM] | IC50 (off-target (int.)) [µM] | IC50 (off-target) [µM] | IC50 (WRN (ext.)) [µM] | IC50 (MDM2) [µM] | IC50 (EGFR) [µM] | IC50 (LSD1) [µM] | IC50 (beta-Catenin) [µM] | IC50 (UPAR) [µM] |
| --- | --- | --- | --- | --- | --- | --- | --- | --- | --- | --- | --- | --- | --- | --- |
| CC(=O)[O-].[Ag+] [Ag (CH 3COO), Silver acetate] | > 10 | > 10 | > 10 | > 10 | > 10 | > 10 | > 10 | > 10 | > 10 | > 10 | > 10 | 1 to 10 | < 1 | – |
| O=[N+]([O-])[O-].O=[N+]([O-])[O-].O=[N+]([O-])[O-].[Al+3] [Al(NO3)3, Aluminum nitrate] | > 10 | > 10 | > 10 | < 1 | > 10 | > 10 | 1 to 10 | > 10 | > 10 | > 10 | > 10 | 1 to 10 | > 10 | > 10 |
| [Cl][Au]([Cl])[Cl] [AuCl3, Gold(III) chloride] | > 10 | > 10 | 1 to 10 | > 10 | 1 to 10 | > 10 | > 10 | > 10 | 1 to 10 | > 10 | > 10 | 1 to 10 | < 1 | 1 to 10 |
| [Cl-].[Cl-].[Co+2] [CoCl2, Cobalt(II) chloride] | > 10 | > 10 | > 10 | > 10 | > 10 | > 10 | > 10 | > 10 | > 10 | > 10 | > 10 | – | > 10 | 1 to 10 |
| [Cl][Cu][Cl] [CuCl2, Copper(II) chloride] | > 10 | > 10 | > 10 | > 10 | > 10 | > 10 | > 10 | > 10 | 1 to 10 | > 10 | > 10 | > 10 | > 10 | < 1 |
| [Cl][Fe][Cl] [FeCl2, Iron(II) chloride] | > 10 | > 10 | 1 to 10 | > 10 | 1 to 10 | > 10 | > 10 | – | > 10 | > 10 | > 10 | > 10 | > 10 | > 10 |
| [Cl][Fe]([Cl])[Cl] [FeCl3, Iron(III) chloride] | > 10 | > 10 | 1 to 10 | > 10 | 1 to 10 | > 10 | > 10 | > 10 | > 10 | > 10 | > 10 | > 10 | > 10 | > 10 |
| [Cl-].[Cl-].[Mg+2] [MgCl2, Magnesium chloride] | > 10 | > 10 | > 10 | > 10 | 1 to 10 | > 10 | > 10 | > 10 | > 10 | > 10 | > 10 | > 10 | > 10 | > 10 |
| [Cl][Mn][Cl] [MnCl2, Manganese(II) chloride] | > 10 | > 10 | > 10 | > 10 | > 10 | > 10 | > 10 | > 10 | > 10 | > 10 | > 10 | > 10 | > 10 | > 10 |
| [Cl][Ni][Cl] [NiCl2, Nickel(II) chloride] | > 10 | > 10 | > 10 | > 10 | > 10 | > 10 | > 10 | > 10 | > 10 | > 10 | > 10 | 1 to 10 | > 10 | < 1 |
| [Cl][Pd][Cl] [PdCl2, Palladium(II) chloride] | < 1 | > 10 | < 1 | > 10 | < 1 | > 10 | < 1 | > 10 | 1 to 10 | > 10 | > 10 | 1 to 10 | > 10 | < 1 |
| [Cl][Sn][Cl] [SnCl2, Tin(II) chloride] | > 10 | > 10 | > 10 | 1 to 10 | 1 to 10 | > 10 | > 10 | > 10 | > 10 | > 10 | > 10 | > 10 | > 10 | > 10 |
| [Cl-].[Cl-].[Zn+2] [ZnCl2, Zinc(II) chloride] | 1 to 10 | > 10 | > 10 | > 10 | > 10 | > 10 | > 10 | > 10 | > 10 | > 10 | > 10 | > 10 | > 10 | < 1 |
